Test results from US6395745B1, “Alkaloid halide salts of swainsonine and methods of use” (priority 1997, dated 2002).

Experiments:
lysosomal mannosidase = molecular target: T1, lysosomal mannosidase (Homo sapiens, UniProt O00754); test: Inhibition of lysosomal mannosidase in vitro; assay type: biochemical; details: pH 5.0, 60 min at 37° C.
T1 sequence (O00754 50-1011): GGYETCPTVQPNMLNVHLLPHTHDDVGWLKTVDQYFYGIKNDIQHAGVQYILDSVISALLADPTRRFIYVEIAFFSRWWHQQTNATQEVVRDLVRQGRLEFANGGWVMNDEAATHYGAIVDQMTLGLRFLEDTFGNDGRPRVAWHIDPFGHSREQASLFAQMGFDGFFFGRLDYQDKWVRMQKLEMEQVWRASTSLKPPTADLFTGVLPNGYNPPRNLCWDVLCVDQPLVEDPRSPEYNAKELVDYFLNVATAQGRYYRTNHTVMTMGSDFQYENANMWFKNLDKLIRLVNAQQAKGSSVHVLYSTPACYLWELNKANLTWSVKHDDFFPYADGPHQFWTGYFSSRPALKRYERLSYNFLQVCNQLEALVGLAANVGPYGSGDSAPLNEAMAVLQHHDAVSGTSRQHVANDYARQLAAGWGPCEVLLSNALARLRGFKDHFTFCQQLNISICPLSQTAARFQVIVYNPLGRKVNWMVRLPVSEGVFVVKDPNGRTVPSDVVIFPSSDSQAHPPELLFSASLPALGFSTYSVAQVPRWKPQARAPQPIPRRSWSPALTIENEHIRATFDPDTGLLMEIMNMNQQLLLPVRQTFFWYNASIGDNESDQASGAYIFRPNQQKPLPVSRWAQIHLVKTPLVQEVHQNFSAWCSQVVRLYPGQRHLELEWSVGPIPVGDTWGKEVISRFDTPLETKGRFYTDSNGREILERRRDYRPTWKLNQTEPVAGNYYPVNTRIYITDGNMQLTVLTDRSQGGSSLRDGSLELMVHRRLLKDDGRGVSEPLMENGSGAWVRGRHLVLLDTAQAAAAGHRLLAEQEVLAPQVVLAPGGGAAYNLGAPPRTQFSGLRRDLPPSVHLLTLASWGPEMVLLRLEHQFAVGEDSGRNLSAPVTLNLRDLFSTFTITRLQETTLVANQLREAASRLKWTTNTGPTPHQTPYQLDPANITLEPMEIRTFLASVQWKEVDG
Description: The effects of the compounds of the invention on lysosomal mannosidase were measured by adding (10 μl) of the compounds into 96 well Elisa plates followed by the addition of 200 mM sodium acetate pH 5.0 and 25 μl of 10 mM p-nitrophenyl α-D-mannospyranoside. 15 μl of lysosomal mannosidase ( about 8 mM/mL) was added to each well and the plates were incubated for 60 min at 37° C. The reaction was stopped by the addition of 50 μl of 0.5M sodium carbonate and formation of p-nitrophenol was measured with a plate set at 405.

[1] = Accelerated stability of stressed solid samples, percentage remaining by HPLC; assay type: physicochemical
Description: Samples of swainsonine free base synthesized using synthetic routes developed by Dr. David Dime (Toronto Research Chemicals, Toronto, Ontario) and Dr. William Pearson (University of Michigan, Ann Arbor, Mich.), were recrystallized to obtain either the hydrochloride salt, the hydrobromide salt or the free base of swainsonine. Samples were weighed and exposed to the conditions described below.
To model long-term stability or shelf life, various conditions were used to accelerate the decomposition process. Samples of crystalline prism swainsonine hydrochloride salt and swainsonine free base (a white, fluffy powder obtained from swainsonine hydrochloride were recrystallized from chloroform-methanol-diethyl ether) were weighed and exposed to conditions described below (stressed samples). Unstressed samples were prepared at 1 mg/ml concentration and chromatographed in sextuplicate on each run. After the indicated time interval each stressed sample was diluted with mobile phase at the same concentration as the unstressed sample. The percentage remaining swainsonine hydrochloride or swainsonine free base was calculated based on the percentage of either the hydrochloride or the free base in the unstressed sample.
The conditions included (a) UV light for 7 days; (b) 105° C. with atmospheric oxygen for seven days (*=average of two samples); (c) 105° C. under nitrogen for seven days (*=average of two samples); (d) 70° C. with low humidity for seven days; and (e) 40° C. with 75% relative humidity for seven days. Other tests include (f) UV for 24 hours; (g) 100° C. aqueous solution for two hours; (h) aqueous acidic treatment for 24 hours; (i) aqueous alkali treatment for 4 hours; and (j) (aqueous) 3% hydrogen peroxide for 4 hours. […] The physical properties of swainsonine hydrochloride compared to the free base and swainsonine hydrobromide, and swainsonine hydrofluoride are shown in Table 5.

Cl.O[C@H]1[C@H]2[C@H](O)CCCN2C[C@@H]1O [swainsonine hydrochloride, (−)-(1S,2S,8R,8aR)-1,2,8-trihydroxyoctahydro-indolizidine hydrochloride salt]
IC50 (lysosomal mannosidase): 0.045 ± 0.01 µM
percentage remaining, condition (e) ([1]; 40° C. with 75% relative humidity for seven days): 101.9%
percentage remaining, condition (d) ([1]; 70° C. with low humidity for seven days): 103.2%
percentage remaining, condition (c) ([1]; 105° C. under nitrogen for seven days (*=average of two samples)): 101.2%
percentage remaining, condition (b) ([1]; 105° C. with atmospheric oxygen for seven days (*=average of two samples)): 100.9%
percentage remaining, condition (a) ([1]; UV light for 7 days): 99.4%
